# In paper PMC7806715, “Discovery of small molecules targeting the tandem tudor domain of the epigenetic factor UHRF1 using fragment-based ligand discovery” (Scientific Reports, 2021):
# What was measured:
# [1] = molecular target: T1, His6-TTD (UHRF1 tandem Tudor domain) vs. H3K9me3 peptide (Homo sapiens, UniProt Q96T88); assay: TR-FRET assay: His6-TTD interaction with H3K9me3 peptide; assay type: biochemical; details: protein treated with PKA and ATP 1 h at 30 °C
# T1 construct: Using the isolated His6-TTD (aa 123–283) we performed a thermal shift assay; made in house; host or cells: Rosetta (DE3) E. coli, pMCSG7
# T1 sequence (Q96T88 123-283): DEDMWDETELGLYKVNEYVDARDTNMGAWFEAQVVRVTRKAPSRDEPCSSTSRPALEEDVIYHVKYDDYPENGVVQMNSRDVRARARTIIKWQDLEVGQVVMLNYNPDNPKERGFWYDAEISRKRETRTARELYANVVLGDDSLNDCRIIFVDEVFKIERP
# Method: Finally, the fragment library was screened using a TR-FRET assay to find inhibitors that block the interaction of His6-TTD with H3K9me3 peptide. In this assay, an anti-His6-antibody labeled with Tb cryptate binds to His6-TTD while a streptavidin-d2 acceptor binds to a biotinylated histone H3K9me3 peptide. The binding between His6-TTD and H3K9me3 peptide was measured by the ratio of 665 nm fluorescence (from the d2 acceptor) to 620 nm fluorescence (from the Tb cryptate donor) (Fig. 1D).
# The fragment screen was carried out on low volume 384-well white plates (Corning 4512) and the assay was performed at room temperature. […] After 1 h of incubation, the fluorescent signals at 665 nm and 620 nm of each plate were measured by the Tecan Infinite M1000 plate reader (excitation 340 nm, 60 µs lag time, and 500 µs integration time) and the TR-FRET signal was calculated by the ratio of 665 nm/620 nm fluorescent signal. For the fragment screen, on seven of the library plates there were 32-wells of DMSO control, while there were 8-wells of DMSO control in the last plate. […] The only difference was that the final concentration of His6-TTD-PHD was 200 nM, biotin-H3K9me3 peptide was 200 nM for the His6-TTD-PHD TR-FRET assay, while the final concentration of His6-UHRF1-FL was 200 nM and biotin-H3K9me3 peptide was 100 nM for the His6-UHRF1-FL TR-FRET assay. The buffer pH was 7.5 for the His6-TTD-PHD and His6-UHRF1-FL assays.
# [2] = molecular target: T2, His6-UHRF1-full length vs. H3K9me3 peptide (Homo sapiens, UniProt Q96T88); assay: TR-FRET assay: His6-UHRF1-FL binding to H3K9me3 peptide; assay type: biochemical; details: dose-response, side by side with His6-TTD
# T2 construct: made in house; host or cells: Rosetta (DE3) E. coli, pMCSG7
# T2 sequence (Q96T88 1-793): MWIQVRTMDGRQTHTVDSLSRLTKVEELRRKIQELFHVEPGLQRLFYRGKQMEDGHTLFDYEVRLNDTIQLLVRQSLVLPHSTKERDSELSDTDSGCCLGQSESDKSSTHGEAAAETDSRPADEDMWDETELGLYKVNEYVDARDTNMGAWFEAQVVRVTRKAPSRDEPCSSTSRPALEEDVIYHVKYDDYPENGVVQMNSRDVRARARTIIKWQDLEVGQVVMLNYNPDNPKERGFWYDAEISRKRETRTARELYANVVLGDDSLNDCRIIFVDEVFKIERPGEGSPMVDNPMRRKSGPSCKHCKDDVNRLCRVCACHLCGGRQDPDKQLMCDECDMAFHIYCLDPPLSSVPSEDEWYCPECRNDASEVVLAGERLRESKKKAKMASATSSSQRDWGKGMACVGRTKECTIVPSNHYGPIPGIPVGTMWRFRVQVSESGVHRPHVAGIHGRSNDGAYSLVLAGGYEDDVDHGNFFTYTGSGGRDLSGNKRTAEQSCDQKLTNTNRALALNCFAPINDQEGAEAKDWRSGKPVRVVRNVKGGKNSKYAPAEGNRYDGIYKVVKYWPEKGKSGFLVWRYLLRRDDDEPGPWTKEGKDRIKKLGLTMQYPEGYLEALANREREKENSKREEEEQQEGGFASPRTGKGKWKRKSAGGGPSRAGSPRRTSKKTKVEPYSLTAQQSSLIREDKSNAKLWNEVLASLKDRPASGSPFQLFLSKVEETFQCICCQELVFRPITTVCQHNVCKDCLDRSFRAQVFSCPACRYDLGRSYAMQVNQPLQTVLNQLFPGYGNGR
# Method: The fragment screen was carried out on low volume 384-well white plates (Corning 4512) and the assay was performed at room temperature. The TR-FRET reagent mix contained 200 nM of biotinylated-H3K9me3 peptide (Anaspec), 250 nM of His6-TTD, 25 nM of streptavidin-d2 (CisBio), and 1 × anti-6His-Tb cryptate Gold (Cisbio) in TR-FRET buffer (50 mM sodium phosphate, pH 7, 150 mM NaCl, 1 mM DTT, and 0.1% Triton-X-100). During the screen, 5 μl of TR-FRET reagent mix was dispensed into each well, and 100 nl of chemical fragments stock (10 mM in DMSO) was added to each well by pintool using Tecan Freedom Evo liquid handler to make the final compound concentration 196 μM. After 1 h of incubation, the fluorescent signals at 665 nm and 620 nm of each plate were measured by the Tecan Infinite M1000 plate reader (excitation 340 nm, 60 μs lag time, and 500 μs integration time) and the TR-FRET signal was calculated by the ratio of 665 nm/620 nm fluorescent signal. For the fragment screen, on seven of the library plates there were 32-wells of DMSO control, while there were 8-wells of DMSO control in the last plate. The TR-FRET assays for the interactions between His6-TTD-PHD and His6-UHRF1-FL binding to biotinylated-H3K9me3 (1-20) peptide were similar to the assay for His6-TTD. […]
# [3] = no reference given; cited from earlier work
smiles,measurement,setting,value
"Cc1ccnc(C)c1 [2,4-lutidine]",effect of PKA treatment of His6-TTD on inhibition of H3K9me3 peptide binding (in words),[1],no effect
same,inhibition of His6-UHRF1-FL interaction with H3K9me3 peptide (in words),[2],only weakly inhibits
same,pKa,[3],6.99
